Laboratory results from ChEMBL document CHEMBL1201862, “PubChem BioAssay data set” (2004).
Calls of active or inactive are those of the source.

Key:
[1] = target: T1, Heat shock factor protein 1 (Mus musculus, UniProt P38532); assay: decrease of HSF1-responsive luciferase luminescence – cell-based, NIH3T3, dose retest, confirmation (AID 2382); type: functional;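 further: NIH3T3 fibroblasts with HSF1-driven luciferase reporter stressed by proteasome inhibitor MG132; luminescence from HSF1-driven luciferase expression after 8 hours of MG132 stress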
T1 sequence (P38532 whole entry): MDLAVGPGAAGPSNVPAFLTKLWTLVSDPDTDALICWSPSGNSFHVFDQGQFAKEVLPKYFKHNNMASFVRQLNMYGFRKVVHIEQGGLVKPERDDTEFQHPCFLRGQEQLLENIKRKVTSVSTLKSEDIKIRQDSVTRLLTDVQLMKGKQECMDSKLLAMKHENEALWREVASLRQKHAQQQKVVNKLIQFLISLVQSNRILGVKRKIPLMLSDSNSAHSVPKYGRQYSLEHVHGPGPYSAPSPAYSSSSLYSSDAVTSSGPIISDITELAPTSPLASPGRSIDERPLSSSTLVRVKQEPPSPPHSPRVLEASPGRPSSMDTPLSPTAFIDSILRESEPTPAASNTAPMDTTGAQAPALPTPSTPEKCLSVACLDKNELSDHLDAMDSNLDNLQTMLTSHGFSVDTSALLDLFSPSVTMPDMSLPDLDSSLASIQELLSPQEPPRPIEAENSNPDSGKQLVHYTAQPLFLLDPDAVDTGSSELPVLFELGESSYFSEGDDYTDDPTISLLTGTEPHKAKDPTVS

[2] = non-specific 3'UTR reporter inhibition in Clone20-Shn3RL – cell-based, Renilla luciferase, cherry-picked, counter-screen for Shn3 inhibitor project, dose response (AID 624133); type: functional
[3] = luciferase reporter signal suppression in cells – H4 neuroglioma cells, luminescence, dose response (AID 1990); type: functional, cell-based
[4] = loss of viability in HepG2 cells – cell-based, CellTiter-Glo, cherry-picked, cytotoxicity control for Shn3 inhibitor project, dose response (AID 624134); type: functional
[5] = target: T2, Scavenger receptor class B member 1 (Mus musculus, UniProt Q61009); assay: mouse SR-BI DiI-HDL uptake blockers – ldlA[mSR-BI] cells, fluorescence, cherry pick, dose response (AID 493194); type: functional, cell-based;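 further: cellular uptake of fluorescent DiI-labeled HDL measured as cell fluorescence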
T2 sequence (Q61009 whole entry): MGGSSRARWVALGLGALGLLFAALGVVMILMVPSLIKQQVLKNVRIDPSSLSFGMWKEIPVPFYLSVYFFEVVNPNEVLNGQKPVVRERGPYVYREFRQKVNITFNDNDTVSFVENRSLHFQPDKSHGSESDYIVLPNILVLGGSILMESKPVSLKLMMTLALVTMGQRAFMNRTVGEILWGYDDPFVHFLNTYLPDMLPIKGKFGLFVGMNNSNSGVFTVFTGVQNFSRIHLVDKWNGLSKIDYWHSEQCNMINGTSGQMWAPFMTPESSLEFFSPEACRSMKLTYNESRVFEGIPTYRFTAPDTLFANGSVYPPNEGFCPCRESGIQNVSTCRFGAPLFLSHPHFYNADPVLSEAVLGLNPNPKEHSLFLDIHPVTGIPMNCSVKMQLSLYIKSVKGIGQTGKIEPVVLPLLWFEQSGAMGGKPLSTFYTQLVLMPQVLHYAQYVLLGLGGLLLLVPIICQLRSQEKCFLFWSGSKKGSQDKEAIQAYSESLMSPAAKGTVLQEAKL

[6] = Luminescence Cell-Based Dose Response HTS to Identify Inhibitors of 5'UTR Stem-Loop Driven Prion Protein mRNA Translation in H4 Neuroglioblastoma Cells. [Related pubchem assays: 1827 (Project Summary), 1813 (Primary HTS)]; type: functional
[7] = target: T3, Estrogen receptor (Homo sapiens, UniProt P03372);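 further: potency for inhibiting coactivator peptide recruitment to the receptor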
T3 sequence (P03372 whole entry): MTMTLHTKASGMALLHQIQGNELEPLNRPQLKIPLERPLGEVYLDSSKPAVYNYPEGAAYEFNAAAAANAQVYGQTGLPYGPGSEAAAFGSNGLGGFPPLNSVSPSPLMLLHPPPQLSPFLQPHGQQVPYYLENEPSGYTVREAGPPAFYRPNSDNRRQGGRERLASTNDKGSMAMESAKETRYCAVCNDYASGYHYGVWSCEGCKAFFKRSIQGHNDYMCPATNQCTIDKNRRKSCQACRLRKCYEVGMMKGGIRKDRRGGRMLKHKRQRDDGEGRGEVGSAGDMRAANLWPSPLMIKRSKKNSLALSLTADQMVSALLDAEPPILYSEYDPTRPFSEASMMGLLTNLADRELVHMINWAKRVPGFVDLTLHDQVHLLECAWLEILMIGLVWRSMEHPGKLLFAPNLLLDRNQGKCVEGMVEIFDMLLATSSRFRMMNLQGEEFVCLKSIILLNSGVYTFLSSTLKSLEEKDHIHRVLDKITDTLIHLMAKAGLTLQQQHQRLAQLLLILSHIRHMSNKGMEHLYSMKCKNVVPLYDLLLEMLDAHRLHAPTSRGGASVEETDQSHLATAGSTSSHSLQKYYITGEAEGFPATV

[8] = alpha-synuclein stem-loop luciferase translation blockers – H4 neuroglioma cells, luminescence, confirmation (AID 1988); type: functional, cell-based
[9] = reduction of Shn3 3'UTR-driven luciferase in osteoblasts – cell-based, Clone20 osteoblasts, firefly luciferase, cherry-picked, dose response (AID 624132); type: functional;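 further: firefly luciferase luminescence from reporter carrying the Shn3 3'UTR in osteoblasts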
[10] = target: Bcl-2-like protein 10 (Homo sapiens, UniProt Q9HD36); assay: Bcl-B/TR3 peptide binding disruption – biochemical, fluorescence polarization, FITC-TR3 peptide, selectivity assay for Bfl-1 inhibitor project, primary screen (AID 748);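 further: fluorescence polarization from a fluorescein-labelled TR3 peptide binding purified Bcl-B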
Sequence of Bcl-2-like protein 10 (Q9HD36 whole entry): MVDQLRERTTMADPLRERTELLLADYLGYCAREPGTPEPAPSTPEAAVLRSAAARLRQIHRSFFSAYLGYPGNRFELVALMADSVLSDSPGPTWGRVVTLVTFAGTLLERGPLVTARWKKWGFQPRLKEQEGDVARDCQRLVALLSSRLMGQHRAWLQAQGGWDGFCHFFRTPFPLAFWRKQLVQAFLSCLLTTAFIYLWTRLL

[11] = target: Estrogen receptor beta (Homo sapiens, UniProt Q92731); assay: blockers of SRC-3 recruitment to ERβ – biochemical, ELISA, streptavidin-HRP readout, orthogonal assay, confirmation (AID 1060)
Sequence of Estrogen receptor beta (Q92731 whole entry): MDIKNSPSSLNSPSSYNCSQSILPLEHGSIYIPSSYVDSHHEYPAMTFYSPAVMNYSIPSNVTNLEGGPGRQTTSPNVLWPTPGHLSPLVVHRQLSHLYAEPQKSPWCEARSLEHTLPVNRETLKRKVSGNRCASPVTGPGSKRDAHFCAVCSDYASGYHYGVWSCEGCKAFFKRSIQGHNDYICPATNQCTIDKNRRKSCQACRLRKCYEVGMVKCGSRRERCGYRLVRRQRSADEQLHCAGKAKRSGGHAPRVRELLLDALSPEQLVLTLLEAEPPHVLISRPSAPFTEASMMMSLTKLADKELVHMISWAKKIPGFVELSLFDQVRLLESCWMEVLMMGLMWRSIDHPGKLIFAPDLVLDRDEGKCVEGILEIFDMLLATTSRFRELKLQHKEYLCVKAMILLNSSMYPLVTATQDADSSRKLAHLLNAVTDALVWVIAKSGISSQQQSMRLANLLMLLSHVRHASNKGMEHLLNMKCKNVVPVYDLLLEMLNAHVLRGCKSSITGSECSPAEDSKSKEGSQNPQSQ

[12] = target: T4, Small ubiquitin-related modifier 2 (Homo sapiens, UniProt P61956); assay: SUMO2 binding disruption by SUMO1 hits – biochemical, FRET, human SUMO2, uHTS hits, selectivity assay for SUMO1 interaction inhibitor project, dose response (AID 624384); type: functional; conditions: read-out: IC50_Mean
T4 sequence (P61956 whole entry): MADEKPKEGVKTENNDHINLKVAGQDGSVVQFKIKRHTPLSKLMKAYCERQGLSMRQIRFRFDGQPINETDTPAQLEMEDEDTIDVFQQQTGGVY

[13] = target: T5, Small ubiquitin-related modifier 1 (Homo sapiens, UniProt P63165); assay: SUMO1 protein interaction blockers, potency – biochemical, fluorescence polarization, uHTS hits, dose response (AID 624382); type: functional; conditions: read-out: IC50_Mean
T5 sequence (P63165 whole entry): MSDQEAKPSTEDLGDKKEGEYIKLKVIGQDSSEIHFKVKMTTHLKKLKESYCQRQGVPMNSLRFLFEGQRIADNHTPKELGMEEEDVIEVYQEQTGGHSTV

[14] = Cytotoxicity screening for potential Inhibitors of Bacterial Capsule Biogenesis. [Related pubchem assays (depositor defined):AID488970]; type: functional
[15] = target: T5, Small ubiquitin-related modifier 1; assay: SUMO1 protein-protein binding blockers, potency – biochemical, FRET, dose response (AID 624383); type: functional; conditions: read-out: IC50_Mean
[16] = target: T4, Small ubiquitin-related modifier 2; assay: disruption of SUMO2 interaction with SIM peptide – biochemical, fluorescence polarization, uHTS hits, selectivity assay for SUMO1 interaction inhibitor project, dose response (AID 624385); type: functional; conditions: read-out: IC50_Mean
[17] = CCR5-tropic HIV-1 fusion blockers – cell-based, CCR5-tropic Env, dose response (AID 2279); type: functional
[18] = tested on: Streptococcus; assay: GAS UMAA2166 growth inhibition – luminescence, BacTiterGlo, counter-screen for streptokinase expression inhibitor project, dose response (AID 1915); type: functional, organism-based;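 further: potency for reduction of bacterial viability or growth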
[19] = tested on: Streptococcus sp. 'group A'; assay: Streptococcus pyogenes SK(-)GAS viability under kanamycin – luminescence, BacTiterGlo, confirmation, counter-screen for streptokinase expression inhibitor project, dose response (AID 1900); type: functional, organism-based

With `CCOc1cc(N2CCOCC2)c(OCC)cc1NC(=O)c1cc(-c2ccco2)nc2ccccc12` the EC50 [1] was 1.21 µM (active), the AC50 [2] was 9.78 µM (active) and the EC50 [3] was > 120 µM (not active). The AC50 [4] was 53.5 µM (active), the AC50 [5] was 46.2 µM (active) and the EC50 [6] was > 120 µM (not active). For the same compound, the IC50 [7] was 14.7 µM (active), the EC50 [8] was 7.84 µM (active) and the AC50 [9] was 8.94 µM (active).
With `Cc1cc(C)n2nc(C(=O)OCC(=O)c3cc(C)n(C)c3C)nc2n1` the IC50 [10] was 24.4 µM (active) and the IC50 [11] was > 50 µM (not active).
In the case of `O=C(COc1ccc(Cl)cc1Cl)Nc1ccc(C(=O)Nc2ccccc2C(=O)O)cc1`, the IC50 [12] is reported as 48.1 µM (inactive), the IC50 [13] is reported as 2.7 µM (active) and the CC50 [14] is reported as 45.3 µM (active). The IC50 [15] was 11.3 µM (active), the IC50 [16] was 13.3 µM (active) and the IC50 [17] was > 50 µM (active). The EC50 [18] was > 150 µM (not active) and the EC50 [19] was 3.72 µM (active).
